Like-named read-outs stand apart in the source and are kept apart here.
Key:
A549 = assay: Cytotoxicity assay (MTT), A549 cell line; format: cell-based; details: 24 h
How it was run: (§1)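 Hep G2 and A549 cells were cultured 24 h at 37° C in RPM medium with test compounds at 50 μM and 12.5 μM. MTT was added for 0.5-2 h and formazan read at 490 nm. Growth value calculated as OD490 treated/OD490 nontreated ×100.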

Hep G2 = assay: Cytotoxicity assay (MTT), Hep G2 cell line; format: cell-based; details: 24 h
How it was run: as §1

[1] = system: human peripheral blood mononuclear cells (PBMC); assay: Effects on human T-cell proliferation in vitro (3H-thymidine incorporation); format: cell-based; details: Homo sapiens, PBMC, read-out: Percentage of inhibition of proliferation of stimulated PBMC
Description: The influence of the various test compounds at two different concentrations (50 μM and 10 μM) on cell proliferation of human peripheral blood mononuclear cells (PBMC) was assessed. […] The cells were pulsed with 1 μCi of ^3H-thymidine (Amersham, USA) per well during the last 18 h of the culture, and were harvested on the 96-well filter (Packard Bioscience, USA) using a multiple cell harvester (Packard, USA). The incorporation of ^3H-thymidine in activated cells were measured using TopCount NXT (Packard, USA). […] The positive control refers to LPS-, PMA- or zymosan-stimulated samples that were not treated with test compounds.

IL-1α = assay: Inhibition of IL-1 production by stimulated human peripheral blood leukocytes in vitro; format: cell-based; details: Homo sapiens, Leukocyte, read-out: Percentage of inhibition of IL-1α production
TNF-α [2] = assay: Lipopolysaccharide induced TNF-α production in Balb/cJ mice; format: in vivo; details: Mus musculus, ip, 1.5 h; 10 mg/kg intraperitoneally, 30 min before LPS; 90 min after LPS; read-out: % inhibition of TNF-α production (plasma)
IL-8 = assay: Inhibition of IL-8 production by stimulated human peripheral blood leukocytes in vitro; format: cell-based; details: Homo sapiens, Leukocyte, read-out: Percentage of inhibition of IL-8 production
How it was run: (§2)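 Cytokines in supernatants measured by sandwich ELISA after overnight stimulation (2 μg/mL LPS, 1 μg/mL PMA or 120 μg/mL zymosan) of healthy-donor leukocytes pretreated 2 h with 10 or 50 μM compound. Percent inhibition calculated relative to stimulated cells lacking compound.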

IL-6 = assay: Inhibition of IL-6 production by stimulated human peripheral blood leukocytes in vitro; format: cell-based; details: Homo sapiens, Leukocyte, read-out: Percentage of inhibition of IL-6 production
How it was run: as §2

TNF-α [3] = assay: Inhibition of TNF-α production by stimulated human peripheral blood leukocytes in vitro; format: cell-based; details: Homo sapiens, Leukocyte, read-out: Percentage of inhibition of TNF-α production
How it was run: as §2

SMILES	Percentage of inhibition of cell growth (A549; 12.5 μM)	Percentage of inhibition of cell growth (A549; 50 μM)	Percentage of inhibition of cell growth (Hep G2; 12.5 μM)	Percentage of inhibition of cell growth (Hep G2; 50 μM)	inhibition at 10 µM (IL-1α; LPS-stimulated PBL)	inhibition at 10 µM (IL-1α; PMA-stimulated PBL)	inhibition at 10 µM (IL-1α; zymosan-stimulated PBL)	inhibition at 50 µM (IL-1α; LPS-stimulated PBL)	inhibition at 50 µM (IL-1α; PMA-stimulated PBL)	inhibition at 50 µM (IL-1α; zymosan-stimulated PBL)	inhibition in vivo at 10 mg/kg (TNF-α [2])	inhibition at 10 µM (IL-8; LPS-stimulated PBL)	inhibition at 10 µM (IL-8; PMA-stimulated PBL)	inhibition at 10 µM (IL-8; zymosan-stimulated PBL)	inhibition at 50 µM (IL-8; LPS-stimulated PBL)	inhibition at 50 µM (IL-8; PMA-stimulated PBL)	inhibition at 50 µM (IL-8; zymosan-stimulated PBL)	inhibition at 10 µM (IL-6; LPS-stimulated PBL)	inhibition at 10 µM (IL-6; PMA-stimulated PBL)	inhibition at 10 µM (IL-6; zymosan-stimulated PBL)	also measured
CC[C@H]1OC(=O)[C@H](C)[C@@H](O[C@H]2C[C@@](C)(OC)[C@@H](OC(=O)CCN(CC)CC)[C@H](C)O2)[C@H](C)[C@@H](O[C@@H]2O[C@H](C)C[C@H](N(C)C)[C@H]2O)[C@](C)(O)C[C@@H](C)CN(C)[C@H](C)[C@H]2OC(=O)O[C@@]21C [Example 1, 11,12-Carbonate-11,12-dideoxy-4″-O-(3-diethylamino-propionyl)-azithromycin]	0%	3%	0%	15%	67%	0%	73%	93%	84%	83%	64%	0%	0%	29%	97%	100%	100%	10%	0%	29%	inhibition at 10 µM ([1]; PHA): 95%; inhibition at 50 µM ([1]; PHA): 99%; inhibition at 10 µM ([1]; PMA + iono.): 90%; inhibition at 50 µM ([1]; PMA + iono.): 96%; inhibition at 50 µM (IL-6; LPS-stimulated PBL): 94%; inhibition at 50 µM (IL-6; PMA-stimulated PBL): 96%; inhibition at 50 µM (IL-6; zymosan-stimulated PBL): 100%; inhibition at 10 µM (TNF-α [3]; LPS-stimulated PBL): 54%; inhibition at 10 µM (TNF-α [3]; PMA-stimulated PBL): 0%; inhibition at 10 µM (TNF-α [3]; zymosan-stimulated PBL): 88%; inhibition at 50 µM (TNF-α [3]; LPS-stimulated PBL): 100%; inhibition at 50 µM (TNF-α [3]; PMA-stimulated PBL): 94%; inhibition at 50 µM (TNF-α [3]; zymosan-stimulated PBL): 100%
CC[C@H]1OC(=O)[C@H](C)[C@@H](O[C@H]2C[C@@](C)(OC)[C@@H](OC(=O)CCN(C)C)[C@H](C)O2)[C@H](C)[C@@H](O[C@@H]2O[C@H](C)C[C@H](N(C)C)[C@H]2O)[C@](C)(OC)C[C@@H](C)C(=O)N[C@H](C)[C@@H](O)[C@]1(C)O [Example 12, 4″-O-(3-dimethylamino-propionyl)-6-O-methyl-9a-aza-9a-homoerythromycin A]	8%	4%	0%	0%	43%	45%	88%	95%	90%	100%	69%	7%	0%	2%	72%	3%	9%	16%	32%	67%	inhibition at 10 µM ([1]; PHA): 33%; inhibition at 50 µM ([1]; PHA): 99%; inhibition at 10 µM ([1]; PMA + iono.): 29%; inhibition at 50 µM ([1]; PMA + iono.): 96%; inhibition at 50 µM (IL-6; LPS-stimulated PBL): 81%; inhibition at 50 µM (IL-6; PMA-stimulated PBL): 67%; inhibition at 50 µM (IL-6; zymosan-stimulated PBL): 91%; inhibition at 10 µM (TNF-α [3]; LPS-stimulated PBL): 23%; inhibition at 10 µM (TNF-α [3]; PMA-stimulated PBL): 49%; inhibition at 10 µM (TNF-α [3]; zymosan-stimulated PBL): 77%; inhibition at 50 µM (TNF-α [3]; LPS-stimulated PBL): 92%; inhibition at 50 µM (TNF-α [3]; PMA-stimulated PBL): 97%; inhibition at 50 µM (TNF-α [3]; zymosan-stimulated PBL): 97%
CC[C@H]1OC(=O)[C@H](C)[C@@H](O[C@H]2C[C@@](C)(OC)[C@@H](OC(=O)CCN(CC)CC)[C@H](C)O2)[C@H](C)[C@@H](O[C@@H]2O[C@H](C)C[C@H](NC)[C@H]2O)[C@](C)(OC)C[C@@H](C)C(=O)N[C@H](C)[C@@H](O)[C@]1(C)O [Example 54, 3′-N-Demethyl-4″-O-(3-diethylaminopropionyl)-6-O-methyl-9a-aza-9a-homoerythromycin A]	0%	0%	1%	2%	60%	62%	56%	69%	97%	98%	58%	0%	0%	0%	82%	40%	53%	0%	0%	9%	inhibition at 50 µM (IL-6; LPS-stimulated PBL): 58%; inhibition at 50 µM (IL-6; PMA-stimulated PBL): 71%; inhibition at 50 µM (IL-6; zymosan-stimulated PBL): 87%; inhibition at 10 µM (TNF-α [3]; LPS-stimulated PBL): 3%; inhibition at 10 µM (TNF-α [3]; PMA-stimulated PBL): 25%; inhibition at 10 µM (TNF-α [3]; zymosan-stimulated PBL): 11%; inhibition at 50 µM (TNF-α [3]; LPS-stimulated PBL): 55%; inhibition at 50 µM (TNF-α [3]; PMA-stimulated PBL): 96%; inhibition at 50 µM (TNF-α [3]; zymosan-stimulated PBL): 92%

Reference: patent US8080529B2, “Macrolides with anti-inflammatory activity” (Glaxo Group Limited, priority 2005, dated 2011)
